Experimental data published in US20210247400A1, “ACTIVATION OF PATTERN-TRIGGERED IMMUNITY IN PLANTS BY LIPOOLIGOSACCHARID-SPECIFIC REDUCED ELICITATION (LORE) AND VARIANTS THEREOF” (Technische Universität München, priority 2018, published 2021).
One block for each molecule: values may come before it.

What was measured:
LORE [1] = target: T1, LORE (Arabidopsis thaliana, UniProt O64782); assay: ROS detection in Arabidopsis leaves (leaf discs); type: cell-based; conditions: 5 μM, leaf discs Col-0 or lore-5, FIG. 2D
T1 construct: aequorin-expressing wild-type (Col-0^AEQ) or lore-1 mutant seedlings; endogenous in cells; host or cells: Arabidopsis thaliana Col-0 / Col-0^AEQ seedlings and leaf discs
T1 sequence (O64782 22-805): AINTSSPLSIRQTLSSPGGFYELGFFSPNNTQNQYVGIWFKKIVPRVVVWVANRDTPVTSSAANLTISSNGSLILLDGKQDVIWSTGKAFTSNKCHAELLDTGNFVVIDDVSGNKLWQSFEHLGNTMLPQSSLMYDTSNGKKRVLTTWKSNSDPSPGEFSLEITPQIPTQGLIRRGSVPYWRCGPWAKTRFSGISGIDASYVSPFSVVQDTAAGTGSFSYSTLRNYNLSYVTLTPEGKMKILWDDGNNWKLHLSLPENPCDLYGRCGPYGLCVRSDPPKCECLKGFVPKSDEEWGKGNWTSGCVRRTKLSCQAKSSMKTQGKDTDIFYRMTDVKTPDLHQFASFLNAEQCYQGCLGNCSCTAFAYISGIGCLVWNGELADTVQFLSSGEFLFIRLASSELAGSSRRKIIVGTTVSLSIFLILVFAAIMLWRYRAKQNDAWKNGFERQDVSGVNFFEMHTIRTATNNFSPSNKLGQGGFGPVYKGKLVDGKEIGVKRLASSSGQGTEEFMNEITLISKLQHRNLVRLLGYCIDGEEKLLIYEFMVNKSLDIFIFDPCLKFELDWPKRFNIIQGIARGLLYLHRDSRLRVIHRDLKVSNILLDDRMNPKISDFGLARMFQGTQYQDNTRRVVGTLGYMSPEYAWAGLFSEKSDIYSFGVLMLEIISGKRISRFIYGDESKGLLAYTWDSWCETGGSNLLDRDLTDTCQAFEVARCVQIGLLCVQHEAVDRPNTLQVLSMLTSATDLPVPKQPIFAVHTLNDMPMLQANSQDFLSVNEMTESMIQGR
Description: ROS production was monitored as described (Ranf et al., 2015) in 3 mm leaf discs from 6-8 weeks-old soil-grown plants in 100 μl 5 μM L-012 (WAKO chemicals) and 2 μg/ml horseradish peroxidase (Type II, Roche) in MP-dH2O. For experiments including 4-OH-10:0 (19) and 5-OH-10:0 (20), 10 mM Tris pH 8 was added to the L-012/HRP mix. Luminescence was recorded as relative light units (RLU) in 1 min intervals using a Luminoskan Ascent 2.1 (Thermo Scientific) or a Tecan F200. After 10 min background reading, elicitors were added to the final concentrations indicated and luminescence readings continued over 45-60 min. Data are depicted after normalization to average ROS levels 5 min before elicitor application and subtraction of water or MeOH controls that were included for each genotype on the same plate.

LORE [2] = target: T1, LORE; assay: PTI in Arabidopsis (biological assays, LORE dependence); type: cell-based; conditions: for early PTI signalling reactions / PTI responses / elicitor activity: 5 μM, [Ca^2+]cyt and ROS; for early PTI signalling reactions: short-term exposure, FIG. 4D-E; for PTI responses ([Ca^2+]cyt signalling, ROS production, defence gene induction, MAPK activation; ROS in LORE-GFP-expressing N. benthamiana): FAs 1-5 μM, compared to mc-3-OH-FAs, FIG. 2A-G; for PTI responses: FIG. 3A,B; for elicitor activity: FIG. 3B-E, FIG. 6B
LORE [3] = target: T1, LORE; assay: Aequorin luminescence measurements of [Ca^2+]cyt elevations in Arabidopsis seedlings; type: cell-based; conditions: for elicitor activity ([Ca^2+]cyt response): 5 μM, Col-0^AEQ or lore-1 seedlings, FIG. 2H-J
Description: Aequorin luminescence measurements were performed essentially as described (Ranf et al., 2012). In short, 8- to 10-days-old liquid-grown apoaequorin-expressing seedlings were placed individually in 96-well plates in MP-dH2O containing 5-10 μM coelenterazine-h (p.j.k. GmbH) in the dark overnight. Luminescence was recorded by scanning 2 rows in 10 sec intervals using a Luminoskan Ascent 2.1 (Thermo Scientific). Remaining aequorin was discharged by addition of 150 μl 2 M CaCl2) with 20% EtOH per well. [Ca^2+]cyt concentrations were calculated as L/Lmax (luminescence counts per sec/total luminescence counts remaining).

Pst DC3000 = assay: Induced resistance assay in Arabidopsis plants; type: in vivo, Pseudomonas syringae pv. tomato; conditions: FIG. 1J
Description: After two or three days Pst DC3000 was syringe infiltrated into leaves 4 and 5 of the pretreated plants at 1×10^5 CFU/ml. Bacterial growth in infected leaves was determined 4 days later as described (Vlot et al., 2008). Statistical analysis (one-way analysis of variance, ANOVA, with Tukey's multiple comparison post-test) was applied separately for wild type and mutant plants using GraphPad Prism 7.0.

AtMPK3 and AtMPK6 = assay: Immunoblot analysis of MAPK activation; type: cell-based, Arabidopsis thaliana; conditions: 5 μM, seedlings, FIG. 1H
Description: MAPK activation was elicited in 14-days-old liquid-grown seedlings as described (Ranf et al., 2015) by adding MAMPs to the final concentrations indicated. […] Proteins were extracted in kinase extraction buffer containing 50 mM Tris/HCl pH 7.5, 100 mM NaCl, 20 mM EGTA, 30 mM beta-glycerophosphate, 30 mM 4-p-Nitrophenylphosphate, 4 mM NaF, 4 mM Na3VO4, 4 mM Na2MoO4, 10 mM DTT, 0.2% Tween 20, and 1× plant protease inhibitor cocktail P9599 (Sigma-Aldrich). […] total protein (according to Bradford Protein Assay, Bio-Rad) was separated by standard SDS polyacrylamide gel-electrophoresis (Mini-PROTEAN Tetra Cell, Bio-Rad) and blotted onto nitrocellulose membrane (Amersham™ Protran™ 0.2 μm NC, GE Healthcare) using a Trans-Blot® SD Semi-Dry Transfer Cell (Bio-Rad). Membranes were blocked in Protein-Free TBS Blocking Buffer (Pierce™) and immunostained with anti-phospho-MPK antibody (anti-phospho-p44/42-ERK, 1:1000, Cell Signaling Technology #9101) and anti-rabbit-IgG-peroxidase conjugate (A9169, 1:50000, Sigma-Aldrich) using SuperSignal™ West Dura Extended Duration Substrate (Thermo Scientific). ECL chemiluminescence was detected using a Fusion SL camera (Vilber Lourmat). Membranes were stained with Amido black to assess equal protein loading.

AtFRK1 and AtNHL10 = assay: Gene expression analysis (quantitative PCR of defence genes); conditions: 1 μM, four hours after elicitation, seedlings, FIG. 1G
[4] = sample conc. used for biological assays 5 μM
[5] = wild-type Arabidopsis plants pre-treated with 10 μM, titre at 4 dpi
[6] = sample conc. used for biological assays 1 μM-5 μM (mostly)

SMILES: CCCCCC(O)CCCC(=O)O (stereo not drawn) [Compound 20, 5-hydroxydecanoic acid]
LORE-dependent ROS production (LORE [1]): did not elicit LORE-dependent ROS production

SMILES: CCCCCCC/C=C/C(=O)O [Compound 18, (E)-dec-2-enoic acid]
PTI responses ([Ca^2+]cyt signalling, ROS production, defence gene induction, MAPK activation; ROS in LORE-GFP-expressing N. benthamiana) (LORE [2]): weak and independent of LORE

SMILES: CCCCCCCC(CC(=O)O)OC(C)=O (stereo not drawn) [Compound 25, 3-acetoxydecanoic acid]
elicitor activity ([Ca^2+]cyt response) (LORE [3]): abolished elicitor activity

SMILES: CCCCCCCC(=O)CC(=O)O [Compound 23, 3-oxodecanoic acid]
elicitor activity ([Ca^2+]cyt response) (LORE [3]): induced a moderate LORE-dependent [Ca^2+]cyt response

SMILES: CCCCCCCC(O)CC (stereo not drawn) [Compound 27, decan-3-ol]
PTI responses (LORE [2]): neither 3-decanol nor 1,3-decandiol elicited PTI responses

SMILES: CCCCCCCCCC(=O)NC1CCOC1=O (racemic) [Compound 43, N-Decanoyl-DL- homoserine lactone]
PTI in Arabidopsis (LORE [2]; [4]): No

SMILES: CCCCCCCC(O)CC(=O)O (racemic) [Compound 1, 3-hydroxydecanoic acid]
systemic resistance to infection with Pst DC3000 (Pst DC3000; lore-1 mutant plants pre-treated with 10 μM): systemic resistance was not activated
systemic resistance to infection with Pst DC3000 (Pst DC3000; [5]): more resistant to subsequent infection with virulent Pst DC3000
phosphorylation of AtMPK3 and AtMPK6 (AtMPK3 and AtMPK6): phosphorylation of mitogen-activated protein kinases (MAPK), AtMPK3 and AtMPK6
elicitor activity (LORE [2]): strongest elicitor activity
LORE-dependent (LORE [2]; [6]): Yes
PTI in Arabidopsis (LORE [2]; [6]): Yes
LORE-dependent (LORE [2]; [4]): Yes
PTI in Arabidopsis (LORE [2]; [4]): Yes
[Ca^2+]cyt or ROS signals (LORE [2]; subsequent application after mc-3-OH-FA-depleted LPS, FIG. 4A-C, FIG. 5): typical [Ca^2+]cyt or ROS signals were induced
[Ca^2+]cyt elevations (LORE [3]; Col-0^AEQ seedlings, different concentrations (nanomolar to micromolar range), FIG. 1C): sufficient to elicit [Ca^2+]cyt elevations
transcript accumulation of PTI response genes AtFRK1 and AtNHL10 (AtFRK1 and AtNHL10): induced transcript accumulation

SMILES: CCCCCCC(O)CCC(=O)O (stereo not drawn) [Compound 19, 4-hydroxydecanoic acid]
LORE-dependent ROS production (LORE [1]): did not elicit LORE-dependent ROS production

SMILES: CCCCCCCC(O)CCO (stereo not drawn) [Compound 28, decane-1,3-diol]
PTI responses (LORE [2]): neither 3-decanol nor 1,3-decandiol elicited PTI responses

SMILES: CCCCCCCCCCCC(O)CC(=O)O (racemic) [Compound 7, 3-hydroxytetradecanoic acid]
systemic resistance to infection with Pst DC3000 (Pst DC3000; [5]): did not establish systemic resistance to bacterial infection
PTI signalling (LORE [2]; FIG. 1D-H): did not induce PTI signalling

SMILES: CCCCCCC[C@@H](O)CC(=O)O [Compound 44, (R)-3-hydroxydecanoic acid]
immune signalling ([Ca^2+]cyt elevations) (LORE [3]; different concentrations, Arabidopsis seedlings, FIG. 6A): induced stronger immune signalling than (S)-3-OH—C10:0 (45)

Continued, in another order:

PTI in Arabidopsis (LORE [2]; [4]): No
SMILES: CCCCCCCC(=O)CC(=O)N[C@H]1CCOC1=O [Compound 42, N-(3-Oxodecanoyl)-L-homoserine lactone]
early PTI signalling reactions (LORE [2]): did not elicit significant early PTI signalling reactions

PTI in Arabidopsis (LORE [2]; [4]): No
SMILES: CCCCCCCC(O)CC(=O)N[C@H]1CCOC1=O (stereo partly drawn) [Compound 41, N-(3-Hydroxydecanoyl)-L-homoserine lactone]
early PTI signalling reactions (LORE [2]): did not elicit significant early PTI signalling reactions

elicitor activity ([Ca^2+]cyt response) (LORE [3]): abolished elicitor activity
SMILES: CCCCCCCC(Cl)CC(=O)OC (stereo not drawn) [Compound 22, methyl 3-chlorodecanoate]

elicitor activity (LORE [2]): inactive
SMILES: CCCCCCCC(O)CC(=O)OC(C)(C)C (stereo not drawn) [Compound 30, tert-butyl-3-hydroxydecanoate]

elicitor activity ([Ca^2+]cyt response) (LORE [3]): abolished elicitor activity
SMILES: CCCCCCCC(CC(=O)O)OC (stereo not drawn) [Compound 24, 3-methoxydecanoic acid]

PTI responses ([Ca^2+]cyt signalling, ROS production, defence gene induction, MAPK activation; ROS in LORE-GFP-expressing N. benthamiana) (LORE [2]): weak and independent of LORE
SMILES: CCCCCCC/C=C\C(=O)O [Compound 17, (Z)-dec-2-enoic acid]
